These results are taken from US20060079453A1, “Hla binding peptides and their uses” (priority 2002, published 2006).

What all share (test): biochemical
Common to all, as to type: binding

Test [1] concerns the target HLA-DR DRB4*0101 (DR53) (Homo sapiens, UniProt P01903+P13762, G164S). The note with it: DRB4 *0101.
Test [2] deals with HLA-DR DRB5*0101 (DR51) (Homo sapiens, UniProt P01903+Q30154). The note with it: DRB5 *0101.
Test [3] concerns the target HLA-DR DRB1*1302 (DR13) (Homo sapiens, UniProt P01903+P01911, A100E/A169T/K41T/L162R/M171V/P40S/Q125H/Q178H/Q39Y/Q99D/R42S/S66N/T262R/V115G/W38E/Y61H). The settings on record: DRBI *1302.
Test [4] has as its target HLA-DR DRB1*0701 (DR7) (Homo sapiens, UniProt P01903+P01911, A100R/A102G/A103Q/D57E/D86V/E43K/F76Y/K127E/L162R/M171V/P40G/Q125H/Q99D/R33Q/R42Y/R54Q/S133A/S66F/T210M/V115G/Y107V/Y59L/Y89S). The note with it: DRB1 *0701.
Test [5] deals with HLA-DR DRB3*0101 (DR52) (Homo sapiens, UniProt P01903+P79483).
In test [6] the target is HLA-DR DRB1*0802 (DR8) (Homo sapiens, UniProt P01903+P01911, A100R/A103L/A169T/F76Y/H45Y/I96F/K41T/L162R/M171V/P40S/Q125H/Q178H/Q39Y/Q99D/R218S/R42G/S66Y/V115G/W38E).
Test [7] concerns the target HLA-DR DRB1*0101 (DR1) (Homo sapiens, UniProt P01903+P01911, A100R/D57E/F55L/F60I/F76Y/I96L/L162R/M171V/P40L/Q125E/R42F/V115G/Y59C). The settings on record: DRB1 *0101.
Test [8] deals with HLA-DR DRB1*1501 (DR15) (Homo sapiens, UniProt P01903+P01911). The note with it: DRBI *1501.
Test [9] has as its target HLA-DR DRB1*0301 (DR3) (Homo sapiens, UniProt P01903+P01911, A100K/A102G/A103R/A169T/F55Y/I96L/K41T/L162R/M171V/P40S/Q125H/Q178H/Q39Y/R42S/S66N/T106N/T262R/W38E/Y61H).
The target of test [10] is HLA-DR DRB1*0401 (DR4) (Homo sapiens, UniProt P01903+P01911, A100K/A169T/F76Y/I96L/K127E/L162R/M171V/N62H/P40V/Q125Y/R42H/S133A/S149N/S66Y/V115G/V209L/W38E). The settings on record: DRB1 *0401.
Test [11] addresses HLA-DR DRB1*1101 (DR11) (Homo sapiens, UniProt P01903+P01911, A100R/A169T/A87E/I96F/K41T/L162R/M171V/P40S/Q125H/Q178H/Q39Y/Q99D/R42S/S66Y/T262R/V115G/W38E). The note with it: DRB1 *1101.
Test [12] concerns the target HLA-DR DRB1*0901 (DR9) (Homo sapiens, UniProt P01903+P01911, A100R/A103E/D57H/D86V/F55Y/F60I/F76Y/I96F/K127E/L162R/M171V/P40D/Q125H/Q99R/R33Q/R42F/S133A/S66N/T210M/V115G/W38K/Y107V/Y59G/Y89S). The note with it: DRB1 *0901.

No end group written: not given here. Bounds are passed on as bounds.

HLA-DR DRB1*1101 (DR11), sequence (P01903 26-254 limits assumed, other chains not shown): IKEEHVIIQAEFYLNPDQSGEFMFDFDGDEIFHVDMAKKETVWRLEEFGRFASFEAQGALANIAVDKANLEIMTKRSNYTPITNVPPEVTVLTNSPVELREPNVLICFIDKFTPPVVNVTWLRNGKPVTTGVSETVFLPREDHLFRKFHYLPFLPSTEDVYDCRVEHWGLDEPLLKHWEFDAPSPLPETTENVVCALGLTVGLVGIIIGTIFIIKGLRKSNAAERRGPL
HLA-DR DRB1*0301 (DR3), sequence (P01903 26-254 limits assumed, other chains not shown): as above
HLA-DR DRB1*1302 (DR13), sequence (P01903 26-254 limits assumed, other chains not shown): as above

For VILLGRHSLFHPEDT, the IC50 (commonly the midpoint of a concentration-inhibition curve) was 10.7 µM in test [1]; not below 100 µM in [2]; 0.543 µM in test [3]; 30.6 µM in test [4]; more than 12.1 µM in test [5]; 0.737 µM in [6]. In addition, the IC50 in test [7] is 0.273 µM; in [8] it was 0.426 µM; in [9], 8.74 µM; in test [10], 8.21 µM.
Turning to `CC(C)C[C@H](NC(=O)[C@@H](NC(=O)CN)C(C)C)C(=O)N[C@H](C(=O)N[C@@H](Cc1c[nH]cn1)C(=O)N1CCC[C@H]1C(=O)N[C@@H](CCC(N)=O)C(=O)N[C@@H](Cc1c[nH]c2ccccc12)C(=O)N[C@H](C(=O)N[C@@H](CC(C)C)C(=O)N[C@H](C(=O)N[C@@H](C)C(=O)N[C@@H](C)C(=O)N[C@@H](Cc1c[nH]cn1)C(=O)N[C@@H](CS)C(=O)O)[C@@H](C)O)C(C)C)C(C)C`, the IC50 was 0.0062 µM in test [1]; 2.43 µM in [3]; more than 10.7 µM in [5]; 1.93 µM in test [6]; 0.087 µM in [7]; 0.066 µM in test [8]. In addition, the 50% inhibitory concentration (IC50) came to 21.3 µM in [9] and 0.067 µM in test [10].
For the compound `CC(C)C[C@H](NC(=O)[C@@H](NC(=O)[C@H](CCC(N)=O)NC(=O)[C@H](Cc1c[nH]c2ccccc12)NC(=O)[C@@H]1CCCN1C(=O)[C@H](CCC(N)=O)NC(=O)[C@@H](N)CO)C(C)C)C(=O)N[C@H](C(=O)N[C@@H](C)C(=O)N[C@@H](CO)C(=O)N[C@@H](CCCNC(=N)N)C(=O)NCC(=O)N[C@@H](CCCNC(=N)N)C(=O)N[C@@H](C)C(=O)N[C@H](C(=O)O)C(C)C)C(C)C`, the IC50 in [1] is 7.56 µM; in test [2], 0.084 µM; in test [3], 0.032 µM; in [5] it was more than 12.1 µM; in test [6], 0.386 µM; in test [7], 0.066 µM. For the same compound, the IC50 in test [8] was 11.3 µM; in test [9], more than 81.8 µM; in test [10], 7.63 µM.
With AKTFLRTLVRGVPEY, the IC50 was 0.0063 µM in test [11]; 0.472 µM in test [1]; 3.48 µM in [2]; 0.094 µM in test [3]; 0.025 µM in test [4]; 0.546 µM in [5]. Besides, the IC50 in test [6] amounted to 0.0092 µM; in test [7], 0.104 µM; in test [8], 0.829 µM; in test [9], 54.2 µM; in [10], 0.208 µM.
Turning to GNEIFNTSLFEPPPP, the IC50 in test [11] is more than 40 µM; in test [1], 0.835 µM; in test [2], more than 200 µM; in test [3], 2.8 µM; in [4] it was more than 35.7 µM; in test [5] it was more than 13.2 µM. The IC50 in [6] was more than 163 µM; in test [7], 20.4 µM; in [8], more than 91 µM; in test [10], more than 20 µM.
On to LFRVYSNFLRGKLKL, for which the IC50 stood at 0.173 µM in [11]; 2.33 µM in test [1]; 0.0029 µM in test [2]; 0.08 µM in test [3]; 0.0055 µM in [4]; 8.98 µM in test [5]. Besides, the IC50 stood at 0.028 µM in test [6]; 0.043 µM in [7]; 0.0028 µM in test [8]; 6.16 µM in [9]; 0.643 µM in test [10].
With QWVLTAAHCLKKNSQ, the IC50 was 14.4 µM in test [1]; 0.382 µM in test [2]; more than 35 µM in test [3]; 3.4 µM in [4]; more than 14.9 µM in test [5]; 98 µM in test [6]. Further, the concentration for half-maximal inhibition (IC50) in test [12] was 4.81 µM; in [7], 0.895 µM; in [8], more than 45.5 µM; in test [10] it was more than 40 µM.
Regarding `CC(C)C[C@H](NC(=O)[C@H](CCC(=O)O)NC(=O)[C@H](CCCCN)NC(=O)[C@H](C)N)C(=O)N[C@@H](CCCCN)C(=O)N[C@@H](Cc1ccccc1)C(=O)N[C@H](C(=O)N[C@H](C(=O)N[C@@H](CC(C)C)C(=O)N[C@H](C(=O)N[C@@H](Cc1ccccc1)C(=O)N[C@@H](CCCNC(=N)N)C(=O)N[C@@H](Cc1c[nH]cn1)C(=O)NCC(=O)N[C@@H](CC(=O)O)C(=O)O)C(C)C)[C@@H](C)O)C(C)C`, the IC50 in [1] was 0.051 µM; in [2] it was 0.024 µM; in [3], 0.824 µM; in test [5] it was 8.56 µM; in [6], 1.95 µM; in test [9], 30 µM. Besides, the IC50 in test [10] is 0.783 µM.
For the compound RPGLLGASVLGLDDI, the IC50 in test [11] was more than 93.9 µM; in [1] it was 22 µM; in test [2] it was more than 88.9 µM; in test [3], 2.06 µM; in test [5], 30.2 µM; in test [6], more than 61.2 µM. For the same compound, the IC50 came out at 6 µM in test [8], 35.8 µM in test [9] and 6.52 µM in [10].
Take `CC[C@H](C)[C@H](NC(=O)[C@@H](NC(=O)[C@H](Cc1c[nH]cn1)NC(=O)[C@@H](N)CCCNC(=N)N)C(C)C)C(=O)N[C@@H](Cc1ccc(O)cc1)C(=O)N[C@@H](C)C(=O)N1CCC[C@H]1C(=O)N[C@@H](CO)C(=O)N[C@@H](CO)C(=O)N[C@@H](Cc1c[nH]cn1)C(=O)N[C@@H](CC(N)=O)C(=O)N[C@@H](CCCCN)C(=O)N[C@@H](Cc1ccc(O)cc1)C(=O)N[C@@H](C)C(=O)NCC(=O)O`: the half-maximal inhibitory concentration (IC50) in test [11] is 13.4 µM; in test [1] it was 5.29 µM; in [2] it was 0.088 µM; in test [4], 31.2 µM; in test [5], more than 62.8 µM; in test [6] it was 11.7 µM. In addition, the IC50 came out at 0.481 µM in test [12], 2.17 µM in test [7] and 0.481 µM in test [10].
`CC[C@H](C)[C@H](NC(=O)CNC(=O)[C@H](Cc1ccc(O)cc1)NC(=O)[C@H](CC(C)C)NC(=O)[C@H](CO)NC(=O)[C@H](CC(C)C)NC(=O)[C@H](CC(C)C)NC(=O)[C@H](CO)NC(=O)[C@H](CC(C)C)NC(=O)[C@H](CCC(=O)O)NC(=O)[C@H](CO)NC(=O)[C@H](CC(C)C)NC(=O)[C@H](CCC(=O)O)NC(=O)[C@H](CCCNC(=N)N)NC(=O)[C@@H](N)CC(C)C)C(=O)O`: the IC50 is 6.96 µM in test [11]; 0.544 µM in test [1]; 5.18 µM in [2]; 3.22 µM in test [3]; 4.01 µM in test [4]; more than 15 µM in [5]. For the same compound, the half-maximal inhibitory concentration (IC50) amounted to 9.37 µM in [6], 0.655 µM in test [7], 0.235 µM in [8] and 0.371 µM in [10].
Turning to `CSCC[C@H](NC(=O)CNC(=O)[C@H](CC(C)C)NC(=O)[C@H](CCC(N)=O)NC(=O)[C@@H](NC(=O)[C@H](CC(C)C)NC(=O)[C@H](CCC(N)=O)NC(=O)CNC(=O)[C@@H](N)Cc1ccccc1)[C@@H](C)O)C(=O)N[C@@H](CCC(=O)O)C(=O)N[C@@H](CCC(N)=O)C(=O)N[C@@H](Cc1c[nH]cn1)C(=O)N[C@@H](Cc1ccc(O)cc1)C(=O)N[C@@H](CCC(=O)O)C(=O)N[C@@H](CC(C)C)C(=O)O`, the IC50 was 0.543 µM in test [1]; not below 100 µM in [2]; more than 35 µM in [3]; more than 62.5 µM in test [4]; more than 14.4 µM in [5]; 110 µM in [6]. For the same compound, the IC50 is more than 187 µM in [12], 2.26 µM in test [7], more than 22.8 µM in [8] and 3.21 µM in [10].
